# From patent US20240216395A1, “19-NOR C3,3-DISUBSTITUTED C21 -N-PYRAZOLYL STEROID FOR USE IN TREATING MAJOR DEPRESSIVE DISORDER AND […]” (priority 2021, published 2024)
# Assays:
# [1] = system: nondependent, recreational users of CNS depressants; assay: Abuse potential main study, treatment phase: subjective VAS measures (Drug Liking, Overall Drug Liking, Take Drug Again, High, Good/Bad/Any Drug Effects, Alertness/Drowsiness, Drug Similarity)
# [2] = system: nondependent, recreational users of CNS depressants; assay: Abuse potential study: MOAA/S sedation scores (dose selection and main study); format: in vivo, human; conditions: dose selection, 60, 80 or 90 mg
# Procedure: The first part of the study, dose selection, was a 3-cohort, randomized, double-blind, placebo-controlled, dose-escalation design to identify 2 doses higher than Compound (1)'s anticipated therapeutic dose (30 mg) to carry forward into the main study (FIG. 30A-30B) (U.S. Department of Health and Human Services Food and Drug Administration, Center for Drug Evaluation and Research (CDER). Assessment of abuse potential of drugs: guidance for industry. January, 2017; Griffiths R R, et al. Drug Alcohol Depend. 2003; 70(3):S41-54; Schoedel K, Sellers E. Clin Pharmacol Ther. 2008; 83(4):622-626). The 2 doses were selected based on their safety and tolerability in the dose selection phase, as assessed during sentinel dosing (described below) by the safety and tolerability endpoints (described below). […]
# MOAA/S scores were assessed before dose administrations and at multiple time points (1, 2, 3, 4, 5, 6, 7, 8, 10, 12, and 24 hours) after dosing using a 6-point scale, ranging from 0 (no response after painful trapezius squeeze) to 5 (responds readily to name spoken in a normal tone; Table 18). Electrocardiogram measures and the C-SSRS were assessed during screening, admission, at Day 3, and/or at early termination, and AEs/SAEs were assessed on an ongoing basis during enrollment in the study. […]
# patients with MDD [3] = assay: Phase 3 clinical trial of Compound (1) 30 mg in MDD : TEAEs; format: in vivo, human; conditions: previous Phase 3 clinical trial
# Text: (§1) The study design and results, if applicable, of the clinical trials identified by the NCT numbers are each incorporated by reference herein in its entirety.
# (§2) The majority of patients receiving Compound (1) and experiencing a TEAE reported TEAEs mild and moderate in severity: clinical trial of Example 4 94%, Phase 2 clinical trial conducted by Applicant 100%, previous Phase 3 clinical trial conducted by Applicant 98%, and clinical trial of Example 1 95.0%.
# [4] = aqueous solution formulation (Hoffmann 2020); cited from earlier work
# patients with MDD [5] = assay: Phase 2 clinical trial of Compound (1) 30 mg in MDD (NCT03000530): TEAEs; format: in vivo, human
# Text: as §1, §2
# [6] = Alprazolam 1.5 mg - Compound (1) 30 mg
# [7] = Alprazolam 1.5 mg - Compound (1) 30 mg (relative abuse potential)
# [8] = Alprazolam 1.5 mg - Compound (1) 60 mg
# [9] = Alprazolam 1.5 mg - Compound (1) 60 mg (relative abuse potential)
# [10] = Alprazolam 1.5 mg - Compound (1) 90 mg
# [11] = Alprazolam 1.5 mg - Compound (1) 90 mg (relative abuse potential)
# [12] = Alprazolam 3 mg - Compound (1) 30 mg
# [13] = Alprazolam 3 mg - Compound (1) 30 mg (relative abuse potential)
# [14] = Alprazolam 3 mg - Compound (1) 60 mg
# [15] = Alprazolam 3 mg - Compound (1) 60 mg (relative abuse potential)
# [16] = Alprazolam 3 mg - Compound (1) 90 mg
# [17] = Alprazolam 3 mg - Compound (1) 90 mg (relative abuse potential)
# [18] = Compound (1) 30 mg - placebo (absolute abuse potential)
# [19] = Compound (1) 60 mg - placebo (absolute abuse potential)
# [20] = Compound (1) 90 mg - placebo (absolute abuse potential)
smiles,measurement,setting,value
"C[C@@]1(O)CC[C@H]2[C@H](CC[C@@H]3[C@@H]2CC[C@]2(C)[C@@H](C(=O)Cn4cc(C#N)cn4)CC[C@@H]32)C1 [Compound (1), 1-(2-((3R,5R,8R,9R,10S,13S,14S,17S)-3-hydroxy-3,13-dimethylhexadecahydro-1H-cyclopenta[a]phenanthren-17-yl)-2-oxoethyl)-1H-pyrazole-4-carbonitrile]",Alert/Drowsiness VAS: time scores remained below neutral value of 50,[1]; 30 mg,6-7 hours postdose
same,Alert/Drowsiness VAS: time scores remained below neutral value of 50,[1]; 60 and 90 mg,8-10 hours postdose
same,Drug Liking Emax difference,[1]; [6],12.50
same,Overall Drug Liking Emax difference,[1]; [6],13.92
same,Take Drug Again Emax difference,[1]; [6],13.67
same,Bad Drug Effects Emax difference,[1]; [7],0
same,Good Drug Effects Emax difference,[1]; [7],24.62
same,High Effects Emax difference,[1]; [7],24.59
same,Drug Liking Emax difference,[1]; [8],2.00
same,Overall Drug Liking Emax difference,[1]; [8],5.63
same,Take Drug Again Emax difference,[1]; [8],0
same,Bad Drug Effects Emax difference,[1]; [9],0
same,Good Drug Effects Emax difference,[1]; [9],0.00
same,High Effects Emax difference,[1]; [9],7.57
same,Drug Liking Emax difference,[1]; [10],−3.55
same,Overall Drug Liking Emax difference,[1]; [10],1.12
same,Take Drug Again Emax difference,[1]; [10],0
same,Bad Drug Effects Emax difference,[1]; [11],−12.93
same,Good Drug Effects Emax difference,[1]; [11],−12.00
same,High Effects Emax difference,[1]; [11],−12.00
same,Drug Liking Emax difference,[1]; [12],14.00
same,Overall Drug Liking Emax difference,[1]; [12],14.62
same,Take Drug Again Emax difference,[1]; [12],16.43
same,Bad Drug Effects Emax difference,[1]; [13],1.00
same,Good Drug Effects Emax difference,[1]; [13],33.48
same,High Effects Emax difference,[1]; [13],32.45
same,Drug Liking Emax difference,[1]; [14],2.50
same,Overall Drug Liking Emax difference,[1]; [14],6.33
same,Take Drug Again Emax difference,[1]; [14],7.15
same,Bad Drug Effects Emax difference,[1]; [15],1.00
same,Good Drug Effects Emax difference,[1]; [15],7.50
same,High Effects Emax difference,[1]; [15],15.42
same,Drug Liking Emax difference,[1]; [16],0.00
same,Overall Drug Liking Emax difference,[1]; [16],1.82
same,Take Drug Again Emax difference,[1]; [16],0
same,Bad Drug Effects Emax difference,[1]; [17],−1.82
same,Good Drug Effects Emax difference,[1]; [17],−1.00
same,High Effects Emax difference,[1]; [17],−4.14
same,Drug Liking Emax difference,[1]; Compound (1) 30 mg - placebo,12.00
same,Overall Drug Liking Emax difference,[1]; Compound (1) 30 mg - placebo,6.50
same,Take Drug Again Emax difference,[1]; Compound (1) 30 mg - placebo,9.00
same,Bad Drug Effects Emax difference,[1]; [18],0
same,Good Drug Effects Emax difference,[1]; [18],19.98
same,High Effects Emax difference,[1]; [18],19.21
same,Drug Liking Emax difference,[1]; Compound (1) 60 mg - placebo,18.12
same,Overall Drug Liking Emax difference,[1]; Compound (1) 60 mg - placebo,16.75
same,Take Drug Again Emax difference,[1]; Compound (1) 60 mg - placebo,18.57
same,Bad Drug Effects Emax difference,[1]; [19],0
same,Good Drug Effects Emax difference,[1]; [19],40.53
same,High Effects Emax difference,[1]; [19],36.23
same,Drug Similarity: Benzodiazepines Similarity median score,[1]; Compound (1) 90 mg,92.5
same,Drug Similarity: Opioids Similarity median score,[1]; Compound (1) 90 mg,39.0
same,Drug Liking Emax difference,[1]; Compound (1) 90 mg - placebo,25.00
same,Overall Drug Liking Emax difference,[1]; Compound (1) 90 mg - placebo,21.27
same,Take Drug Again Emax difference,[1]; Compound (1) 90 mg - placebo,24.50
same,Bad Drug Effects Emax difference,[1]; [20],0
same,Good Drug Effects Emax difference,[1]; [20],59.00
same,High Effects Emax difference,[1]; [20],55.80
same,Drug Similarity: Placebo Similarity median score,"[1]; all dosages, 12 hours postdose",zero
same,Time for all MOAA/S scores to return to baseline score of 5,[2],≤ 8 hours postdose
same,MOAA/S score (mild sedation) in 1 to 4 participants of at least 1 cohort,[2]; 2-7 hours postdose,2-4
same,Patients with a TEAE whose TEAEs were mild and moderate in severity,patients with MDD [3],98%
same,T½ values reported by a prior study,[4],14 to 19 h
same,Diarrhea,patients with MDD [5]; 30 mg (N = 45),0 n (%)
same,URTI,patients with MDD [5]; 30 mg (N = 45),0 n (%)
same,Patients with a TEAE whose TEAEs were mild and moderate in severity,patients with MDD [5]; Phase 2 clinical trial,100%
